In patent US20130123494A1, “COMPLEX COMPOUND AND OPTICAL RECORDING MEDIUM CONTAINING SAME” (KH NEOCHEM CO., LTD., priority 2010, published 2013):

How the values were obtained:
Assay type in all cases: physicochemical
[1] = Lightfastness test of thin films; conditions: thin film on glass plate, UV fluorescent lamps 15 W/m^2, 45° C., 10 hours
Source text: Thin films of Complex Compounds (2) to (5), (7), (9) to (11), (13) to (21), (24), (26), (28), (30), (31), and (33) were respectively obtained similarly to the film-forming test except that a glass plate (manufactured by Taiyu Kizai Co., Ltd.; 2 cm×2 cm; thickness: 2 mm) was used as the substrates instead of the plate made of polycarbonate resin. Using a dewpanel light control weather meter DPWL-5R, manufactured by Suga Test Instruments Co., Ltd., which was equipped with ultraviolet fluorescent lamps (SUGA-FS40, manufactured by Suga Test Instruments Co., Ltd., having a peak wavelength of 313 nm and an illuminance distribution of 282 nm to 373 nm), light was irradiated on the thin films with an amount of light of 15 W/m^2 at 45° C. for 10 hours. Ultraviolet-visible absorption spectra of the thin film before and after the lightfastness test were measured using a spectrophotometer.
Here, the absorption maximum wavelength after lightfastness test denotes an absorption maximum wavelength in the absorption spectrum after the lightfastness test.

[2] = Moisture- and heat-resistances test of thin films; conditions: thin film, 80° C., relative humidity 80%, 100 hours
Procedure: Similarly to the film-forming test, thin films of Complex Compounds (2) to (5), (7), (9) to (11), (13) to (21), (24), (26), (28), (30), (31), and (33) were respectively obtained. Using a constant temperature and humidity chamber, KHWII-40HP, manufactured by Satake Chemical Equipment Mfg Ltd., the thin films were exposed in the atmosphere having a temperature of 80° C. and a relative humidity of 80% for 100 hours. Ultraviolet-visible absorption spectra of the thin films before and after the moisture- and heat-resistances test were measured using a spectrophotometer. […] Here, the absorption maximum wavelength after the moisture- and heat-resistances test denotes the absorption maximum wavelength in an absorption spectrum after the moisture- and heat-resistances test.

[3] = Test of storage stability in solution; conditions: 13 mg in 1 mL TFP, brown bottle, 25° C., 3 days; 1250-fold diluted for measurement
Procedure: Each of 13 mg of Complex Compounds (2) to (5), (7), (9) to (11), (13) to (21), (24), (26), (28), (30), (31), and (33) was dissolved in 1 mL of TFP, which was filtered with a filter made of TEFLON (registered trademark) (manufactured by Whatman, having a pore diameter of 0.20 μm), and solutions of Complex Compounds (2) to (5), (7), (9) to (11), (13) to (21), (24), (26), (28), (30), (31), and (33) were respectively obtained. Each of the obtained solutions was transferred to a brown bottle with a lid and stored at 25° C. for 3 days. Before and after the storage stability test, using a spectrophotometer, 1250-fold diluted solutions of Complex Compounds (2) to (5), (7), (9) to (11), (13) to (21), (24), (26), (28), (30), (31), and (33), respectively, were measured for their ultraviolet-visible absorption spectra. […] Here, the absorption maximum wavelength after the storage stability test is the absorption maximum wavelength in the absorption spectrum after the storage stability test.

[4] = Water resistance test of thin films; conditions: for I^d/I^d0 (absorbance ratio at absorption maximum after/before water resistance test) / Δλmax (d) (change in absorption maximum wavelength): thin film immersed in water at 75° C. for 30 minutes; for Water resistance of thin film (in words): thin film in water at 75° C. for 30 minutes
Procedure: Similarly to the film-forming test, thin films of Complex Compounds (2), (3), (13), (19), and (20) were respectively obtained. Ultraviolet-visible absorption spectra of the thin films were measured using a spectrophotometer before and after the water resistance test in which the thin films were immersed in water at 75° C. for 30 minutes. […] Here, the absorption maximum wavelength after the water resistance test denotes the absorption maximum wavelength in the absorption spectrum after the water resistance test. […] Here, the water resistance test is a test under severe conditions, and a thin film having the ratio (I^d/I^d0) of 0.5 or greater has favorable water resistance.

Structure (SMILES) | I^a/I^a0 (absorbance ratio at absorption maximum after/before lightfastness test) [1] | I^b/I^b0 (absorbance ratio at absorption maximum after/before moisture- and heat-resistances test) [2] | Δλmax(b) (change in absorption maximum wavelength) [2] | I^c/I^c0 (absorbance ratio at absorption maximum after/before storage stability test) [3] | Δλmax(c) (change in absorption maximum wavelength) [3] | I^d/I^d0 (absorbance ratio at absorption maximum after/before water resistance test) [4] | Δλmax (d) (change in absorption maximum wavelength) [4] | Water resistance of thin film (in words) [4]
Cc1c(/C=N/[N-]c2nnnn2-c2ccccc2)c([O-])n(CC(C)C)c(=O)c1C#N.Cc1c(/C=N/[N-]c2nnnn2-c2ccccc2)c([O-])n(CC(C)C)c(=O)c1C#N.Cc1c(/C=N/[N-]c2nnnn2-c2ccccc2)c([O-])n(CC(C)C)c(=O)c1C#N.Cc1c(/C=N/[N-]c2nnnn2-c2ccccc2)c([O-])n(CC(C)C)c(=O)c1C#N.FC(F)(F)c1cccc(-[n+]2ccc(-c3cc[n+](-c4cccc(C(F)(F)F)c4)cc3)cc2)c1.[Co+3].[Co+3] [Complex Compound (19)] | 0.85 | 0.99 | 0 nm | 0.99 | 0 nm | 0.76 | 0 nm | superior water resistance
Cc1c(/C=N/[N-]c2nnnn2-c2ccccc2)c([O-])n(CC(C)C)c(=O)c1C#N.Cc1c(/C=N/[N-]c2nnnn2-c2ccccc2)c([O-])n(CC(C)C)c(=O)c1C#N.Cc1c(/C=N/[N-]c2nnnn2-c2ccccc2)c([O-])n(CC(C)C)c(=O)c1C#N.Cc1c(/C=N/[N-]c2nnnn2-c2ccccc2)c([O-])n(CC(C)C)c(=O)c1C#N.[Co+3].[Co+3].c1ccc(-[n+]2ccc(-c3cc[n+](-c4ccccc4)cc3)cc2)cc1 [Complex Compound (13)] | 0.87 | 0.99 | 0 nm | 0.99 | 0 nm | 0.59 | 0.5 nm | superior water resistance
Cc1c(/C=N/[N-]c2nnnn2-c2ccccc2)c([O-])n(CC(C)C)c(=O)c1C#N.Cc1c(/C=N/[N-]c2nnnn2-c2ccccc2)c([O-])n(CC(C)C)c(=O)c1C#N.Cc1c(/C=N/[N-]c2nnnn2-c2ccccc2)c([O-])n(CC(C)C)c(=O)c1C#N.Cc1c(/C=N/[N-]c2nnnn2-c2ccccc2)c([O-])n(CC(C)C)c(=O)c1C#N.Fc1ccc(-[n+]2ccc(-c3cc[n+](-c4ccc(F)cc4)cc3)cc2)cc1.[Co+3].[Co+3] [Complex Compound (20)] | 0.86 | 1.00 | 0.5 nm | 1.00 | 0.5 nm | 0.59 | 0.5 nm | superior water resistance
Cc1ccc(-n2c([O-])c(/C=N/[N-]c3nnnn3-c3ccccc3)c(C)c(C#N)c2=O)cc1.Cc1ccc(-n2c([O-])c(/C=N/[N-]c3nnnn3-c3ccccc3)c(C)c(C#N)c2=O)cc1.Cc1ccc(-n2c([O-])c(/C=N/[N-]c3nnnn3-c3ccccc3)c(C)c(C#N)c2=O)cc1.Cc1ccc(-n2c([O-])c(/C=N/[N-]c3nnnn3-c3ccccc3)c(C)c(C#N)c2=O)cc1.[Co+3].[Co+3].c1cc[n+]2c(c1)-c1cccc[n+]1CCC2 [Complex Compound (26)] | 0.88 | 1.00 | 0 nm | 1.01 | 0 nm |  |  | 
CCn1c([O-])c(/C=N/[N-]c2ncccn2)c(C)c(C#N)c1=O.CCn1c([O-])c(/C=N/[N-]c2ncccn2)c(C)c(C#N)c1=O.CCn1c([O-])c(/C=N/[N-]c2ncccn2)c(C)c(C#N)c1=O.CCn1c([O-])c(/C=N/[N-]c2ncccn2)c(C)c(C#N)c1=O.Oc1ccc(-c2ccccc2)cc1-[n+]1ccc(-c2cc[n+](-c3cc(-c4ccccc4)ccc3O)cc2)cc1.[Co+3].[Co+3] [Complex Compound (7)] | 0.99 | 1.00 | 0 nm | 1.00 | 0 nm |  |  | 
Cc1c(/C=N/[N-]c2nc3ccccc3o2)c([O-])n(Cc2ccco2)c(=O)c1C#N.Cc1c(/C=N/[N-]c2nc3ccccc3o2)c([O-])n(Cc2ccco2)c(=O)c1C#N.Cc1c(/C=N/[N-]c2nc3ccccc3o2)c([O-])n(Cc2ccco2)c(=O)c1C#N.Cc1c(/C=N/[N-]c2nc3ccccc3o2)c([O-])n(Cc2ccco2)c(=O)c1C#N.Fc1cccc(-[n+]2ccc(-c3cc[n+](-c4cccc(F)c4)cc3)cc2)c1.[Co+3].[Co+3] [Complex Compound (24)] | 0.92 | 1.00 | 0.5 nm | 1.02 | 0.5 nm |  |  | 
COc1ccc2cc3[n+](cc2c1OC)CCc1cc2c(cc1-3)OCO2.Cc1c(/C=N/[N-]c2nnnn2-c2ccccc2)c([O-])n(CC(C)C)c(=O)c1C#N.Cc1c(/C=N/[N-]c2nnnn2-c2ccccc2)c([O-])n(CC(C)C)c(=O)c1C#N.[Co+3] [Complex Compound (18)] | 0.90 | 1.00 | 0 nm | 1.00 | 0 nm |  |  | 
Cc1c(/C=N/[N-]c2nnnn2-c2ccccc2)c([O-])n(CC(C)C)c(=O)c1C#N.Cc1c(/C=N/[N-]c2nnnn2-c2ccccc2)c([O-])n(CC(C)C)c(=O)c1C#N.Cc1c(/C=N/[N-]c2nnnn2-c2ccccc2)c([O-])n(CC(C)C)c(=O)c1C#N.Cc1c(/C=N/[N-]c2nnnn2-c2ccccc2)c([O-])n(CC(C)C)c(=O)c1C#N.[Co+3].[Co+3].c1ccc2c[n+](CCCCCCCCCC[n+]3ccc4ccccc4c3)ccc2c1 [Complex Compound (16)] | 0.90 | 1.00 | 0 nm | 1.01 | 0 nm |  |  | 
Cc1c(/C=N/[N-]c2nnnn2-c2ccccc2)c([O-])n(CC(C)C)c(=O)c1C#N.Cc1c(/C=N/[N-]c2nnnn2-c2ccccc2)c([O-])n(CC(C)C)c(=O)c1C#N.Cc1c(/C=N/[N-]c2nnnn2-c2ccccc2)c([O-])n(CC(C)C)c(=O)c1C#N.Cc1c(/C=N/[N-]c2nnnn2-c2ccccc2)c([O-])n(CC(C)C)c(=O)c1C#N.[Co+3].[Co+3].c1cc[n+]2c(c1)-c1cccc[n+]1CCC2 [Complex Compound (14)] | 0.92 | 1.00 | 0 nm | 1.01 | 0 nm |  |  | 
